Measurements from patent US5468744A (priority 1994, dated 1995).
Where two headings read alike, the source gives them in different places.

Legend:
[1] = in vivo; cited from earlier work
[2] = Tail-flick test, analgesic activity in male CD1 mice (oral, 15 min); type: in vivo; details: for ED50: Mus musculus, po, 0.25 h, read-out: ED50 (95% confidence interval), drug alone; for ED50 at 15 min (95% Cl's), Tramadol: tramadol component
Experimental: For each of the ratios of individual drugs used in the drug combinations tested (Table I), stock solutions were prepared that corresponded to twice the dose of each drug having a concentration expressed in mgdrug(s) per 5 mL of distilled water. For example, in the case of the 1:20 tramadol:codeine ratio, 9.1 mg of tramadol hydrochloride (=8.0 mg of tramadol as the base) and 217.1 mg of codeine phosphate (=160.0 mg of codeine as the free base) were each dissolved in separate 5 mL vials of distilled water to form individual stock solutions. Equal volumes of each of the stock solutions were then combined to prepare the final desired drug combination per 10 mL of distilled water. […] Then 10 mL/kg of the stock solution was injected into the mouse. See, Table I. Each ratio was prepared separately in a similar manner and injected in a volume of 10 mL/kg per mouse.
The preparation of different ratios of a tramadol/oxycodone combination is effected by preparing a stock solution having a concentration expressed in mgdrugs per 10 mL of dissolved water. […] Each ratio was prepared separately in a similar manner and injected in a volume of 10 mL/kg per mouse.
Some mice were dosed orally with the compositions as made in Example 1 and as shown in Table 1 and other mice were dosed orally with the compositions as made in Example 2 and as shown in Table II. The dosing volume was 10 mL/kg.
Analgesic activity was assessed employing the tail-flick test as described by F. D'Amour et al., J. Pharmacol. Exp. Ther., 72, 74 (1941). The test involved subjecting the tail of a mouse to a focused heat stimulus and monitoring the response, i.e., "flicking" (removing) of the tail from the source of the stimulus. The reaction time (latency) of the response was first measured without the administration of any drug composition, and repeated fifteen minutes after the administration of compositions of the invention wherein the components of the compositions are in various ratios. Each mouse was only subjected to one pre- and post-administration test.
The analysis of possible superadditivity for the compositions at each fixed ratio was determined as disclosed by R. J. Tallarida et al., Life Sci., 45, 947 (1989). This procedure involved determination of the total amount in the mixture that is required to produce a specified level of effect, such as 50% (ED50mix), and the corresponding total amount that would be expected under simple additivity (ED50add). Where it was established that ED50mix <ED50add for a specific fixed-ratio,then that composition ratio is superadditive. Both the 1quantities ED50mix and ED50add were random variables; ED50mix was estimated from the dose-response curve for a specific fixed-ratio; ED50add was obtained by combining the ED50 estimates for the two drugs under additivity. ED50mix was then compared to ED50add via a t-test. […] The interaction between tramadol and codeine or […] were determined at precise dosage ratios of tramadol hydrochloride and codeine or oxycodone. Multiple (typically 4-6) coded doses of each selected combination were studied for analgesic effectiveness after 15 minutes using an experimental design which permitted the complete randomization of the separate dosage forms tested.
In the Figures, the diagonal line joining the ED50 values of the two drugs given separately represents the simple additivity of a composition effects at different component ratio. The dotted adjacent lines to the diagonal line define the 95% confidence interval. ED50's falling under the curve (between the line and the origin) indicate superadditivity, i.e., unexpected enhancement of effects. The diagonal dashed lines radiating from the origin represent the dose ratios of tramadol hydrochloride to codeine phosphate (FIG. 1) or oxycodone sulfate (FIG. 2) used in mice receiving the combined drug dosages. The bars through the ED50 points for tramadol and codeine or oxycodone compositions represent the 95% confidence intervals of the ED50.

[3] = drug alone, p.o., tail-flick, mice, 15 min

In the case of `COc1ccc2c3c1O[C@H]1[C@@H](O)C=C[C@H]4[C@@H](C2)N(C)CC[C@@]341` [Codeine only], the side effects [1] is given as “respiratory depression, constipation, tolerance and abuse liability”, the ED50 [2, 3] is given as 71.3 mg/kg and the Analgesia ([2]; codeine 10 mg/kg p.o., 15 min) is given as 0/10. For the same compound, the Analgesia ([2]; codeine 20 mg/kg p.o., 15 min) was 1/10, the Analgesia ([2]; codeine 40 mg/kg p.o., 15 min) was 1/10 and the Analgesia ([2]; codeine 80 mg/kg p.o., 15 min) was 5/10. The Analgesia ([2]; codeine 160 mg/kg p.o., 15 min) was 10/10.
In the case of `COc1ccc2c3c1O[C@H]1C(=O)CC[C@H]4[C@@H](C2)N(C)CC[C@]314` [hydrocodone], the side effects [1] is listed as “respiratory depression, constipation, tolerance and abuse liability”.
For `COc1ccc2c3c1O[C@H]1C(=O)CC[C@@]4(O)[C@@H](C2)N(C)CC[C@]314` [oxycodone only], the side effects [1] is listed as “respiratory depression, constipation, tolerance and abuse liability”, the ED50 [2] is listed as 4.2 mg/kg and the Analgesia ([2]; oxycodone 0.5 mg/kg p.o., 15 min) is listed as 0/10. For the same compound, the Analgesia ([2]; oxycodone 1 mg/kg p.o., 15 min) was 2/20, the Analgesia ([2]; oxycodone 2 mg/kg p.o., 15 min) was 3/10 and the Analgesia ([2]; oxycodone 3 mg/kg p.o., 15 min) was 2/10. For the same compound, the Analgesia ([2]; oxycodone 6 mg/kg p.o., 15 min) was 5/10, the Analgesia ([2]; oxycodone 10 mg/kg p.o., 15 min) was 9/10 and the Analgesia ([2]; oxycodone 20 mg/kg p.o., 15 min) was 10/10. The Analgesia ([2]; oxycodone 30 mg/kg p.o., 15 min) was 10/10.
In the case of `COc1cccc(C2(O)CCCCC2CN(C)C)c1` (stereo not drawn) [tramadol only, (1RS, 2RS) trans-2-[(dimethylamino)-methyl]-1-(3-methoxyphenyl)cyclohexanol], the “ED50 at 15 min (95% Cl's), Tramadol” value ([2]; Table I (tramadol:codeine), p.o., 15 min) is reported as 76.8 mg/kg, the “ED50 at 15 min (95% Cl's), Tramadol” value ([2]; Table II (tramadol:oxycodone), p.o., 15 min) is reported as 76.8 mg/kg and the “ED50 (95% confidence interval), drug alone” value [2, 3] is reported as 76.8 (59.2-99.7) mg/kg.
